Reference: ChEMBL document CHEMBL1155188, “Sesquiterpenoids from Pilea cavaleriei subsp. crenata” (Bioorg Med Chem Lett, 2009)
In brackets after ≈: the same amount, converted by molar mass. Activity calls are given as the source filed them. No cut-off for these calls is given here.

What was measured:
K562 = experiment: Cytotoxicity against human K562 cells after 48 hrs by MTT assay; type: functional, cell-based
SGC-7901 = experiment: Cytotoxicity against human SGC7901 cells after 48 hrs by MTT assay; type: functional, cell-based
[1] = Cytotoxicity against human AGZY cells after 48 hrs by MTT assay; type: functional, cell-based
[2] = Cytotoxicity against human BIU87 cells after 48 hrs by MTT assay; type: functional, cell-based
EJ = experiment: Cytotoxicity against human EJ cells after 48 hrs by MTT assay; type: functional, cell-based
SK-OV-3 = experiment: Cytotoxicity against human SKOV3 cells after 48 hrs by MTT assay; type: functional, cell-based
[3] = Cytotoxicity against human GLC82 cells after 48 hrs by MTT assay; type: functional, cell-based
A549 = experiment: Cytotoxicity against human A549 cells by SRB assay; type: functional, cell-based
MCF7 = experiment: Cytotoxicity against human MCF7 cells after 48 hrs by MTT assay; type: functional, cell-based; details: MCF7, 48 h
Escherichia coli = experiment: Antibacterial activity against Escherichia coli by microdilution assay; type: functional, organism-based
Staphylococcus aureus = experiment: Antibacterial activity against Staphylococcus aureus by microdilution assay; type: functional
[4] = Homo sapiens, K562, 48 h, read-out: IC50

Row | Compound | IC50 (K562; [4]) [µg/mL] | IC50 (SGC-7901; sgc-7901) | IC50 ([1]; agzy) | IC50 [2] | IC50 (EJ) | IC50 (SK-OV-3) | IC50 [3] | IC50 (A549) [µg/mL] | IC50 (MCF7) [µg/mL] | MIC (Escherichia coli) | MIC (Staphylococcus aureus) | IC50 (SGC-7901; Homo sapiens, SGC-7901, 48 h, read-out: IC50) [µg/mL] | IC50 ([1]; Homo sapiens, AGZY, 48 h, read-out: IC50) [µg/mL] | IC50 (K562; k562)
1 | C=C1CC/C=C(\C)C[C@H](OC(=O)/C=C/c2ccc(O)cc2)CC(C)(C)C[C@@H]1OO | 57.4 (≈ 143 µM) | Not Active | Not Active | Not Active | Not Active | Not Active | Not Active | 33.4 (≈ 83.3 µM) | 23.4 (≈ 58.4 µM) | inactive | 45 µg/mL (≈ 112 µM) |  |  | 
2 | C/C1=C\CC(C)(C)C[C@@H](OC(=O)/C=C/c2ccc(O)cc2)C/C(C)=C/CC1 | 12 (≈ 32.6 µM) |  |  | Not Active | Not Active | Not Active | Not Active | 25.6 (≈ 69.5 µM) | 40.5 (≈ 110 µM) | inactive | inactive | 49.4 (≈ 134 µM) | 27.8 (≈ 75.5 µM) | 
3 | O=c1[nH]cc(F)c(=O)[nH]1 [FLUOROURACIL] |  |  |  |  |  |  |  | 2 (≈ 15.4 µM) |  |  |  |  |  | 
4 | GENTAMICIN |  |  |  |  |  |  |  |  |  | 0.05 µg/mL | 0.05 µg/mL |  |  | 
5 | CC(C)[C@@H]1CC[C@]2(C)[C@H]3CC[C@]2(C)[C@H](OC(=O)/C=C/c2ccc(O)cc2)[C@@H]13 | 41.7 (≈ 113 µM) | Not Active | Not Active | Not Active | Not Active | Not Active | Not Active |  |  |  |  |  |  | 
6 | C=C1CC/C=C(\C)C[C@H](OC(=O)/C=C/c2ccc(O)c([N+](=O)[O-])c2)CC(C)(C)C[C@@H]1O |  | Not Active | Not Active | Not Active | Not Active | Not Active | Not Active |  |  |  |  |  |  | Not Active
